# Laboratory results: PubChem BioAssay (NCI)
# Values joined by “and” are separate entries in the source; they are usually repeats but may differ in a detail not shown here. Equal entries are not always repeated.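 In this assay, cells in 96-well plates receive the compound at five concentrations for 48 hours. Endpoints are linearly interpolated between the surrounding concentrations. Here, GI50 denotes the concentration required for 50% inhibition of growth. TGI: total growth inhibition.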
# What was measured:
# Experiment in all cases: growth of human tumour cells (NCI), 48 h
# [1] = test system: HCT-116 colon
# [2] = test system: MCF7 breast
# [3] = test system: HL-60(TB) leukemia
# [4] = test system: SF-295 CNS
# [5] = test system: LOX IMVI melanoma
# [6] = test system: M14 melanoma
# [7] = test system: SW-620 colon
# [8] = test system: MDA-MB-231 breast
# [9] = test system: OVCAR-4 ovarian
# [10] = test system: BT-549 breast
Structure (SMILES),GI50 [1],TGI [1],GI50 [2],TGI [2],GI50 [3],TGI [3],GI50 [4],TGI [4],GI50 [5],TGI [5],GI50 [6],TGI [6],GI50 [7],TGI [7],GI50 [8],TGI [8],GI50 [9] [µM],TGI [9] [µM],GI50 [10] [µM],TGI [10] [µM]
Cn1ncc(C#N)c1-c1ccc2c(c1)CN([C@H](CN)Cc1cccc(F)c1)C2=O,12.9 µM,28.7 µM,0.812 µM,25.4 µM,22.1 µM,47.8 µM,0.503 µM,24.9 µM,20.3 µM,> 100 µM,14.2 µM,57.1 µM,23.3 µM,> 100 µM,20.9 µM,> 100 µM,23.1,> 100,0.477,12.1
NC(=O)c1c(NC(=O)c2cccs2)sc2c1CCC(=O)C2,1.7 µM,13.7 µM,2.48 µM,18.7 µM,2.45 µM,7.13 µM,2.86 µM,9.42 µM,2.44 µM,14.2 µM,3.73 µM,> 100 µM,0.809 µM,16.8 µM,1.99 µM,6.28 µM,0.761,2.75,2.08,8.41
COc1ccc(OC)c(Nc2nc3nonc3nc2Nc2cccc(Br)c2)c1,0.53 µM,> 100 µM,1.63 µM,> 100 µM,0.702 µM,5.9 µM,0.429 µM,3.29 µM,1.93 µM,> 100 µM,1.5 µM,44.7 µM,0.86 µM,> 100 µM,1.06 µM,10.7 µM,0.867,> 100,0.537,6.97
C/C(=N\NC(=O)c1ccncc1)c1sc(-n2nc(-c3ccccc3)cc2-c2ccccc2)nc1C,,> 31.6 µM,,> 31.6 µM,,> 31.6 µM,,> 31.6 µM,,> 100 µM,,> 31.6 µM,,> 31.6 µM,,> 100 µM,,> 31.6,,> 31.6
COc1cccc2c1C(=O)c1c(O)c3c(c(O)c1C2=O)C[C@@](O)(/C(CO)=N/NC(=O)CCCCCN1C(=O)C=CC1=O)C[C@@H]3O[C@H]1C[C@H](N)[C@H](O)[C@H](C)O1,0.41 µM,> 100 µM,0.147 µM,> 100 µM,0.8 µM,15.5 µM,0.404 µM,5.56 µM,0.301 µM,3.95 µM,1.06 µM,11 µM,0.357 µM,> 49 µM,1.96 µM,44 µM,2.25,22,1.21,8.96
CCN1CCN(c2nc(C)cc(NCc3cc(Nc4ccnc5cc(Cl)ccc45)ccc3F)n2)CC1,1.01 µM,2.75 µM,1.81 µM,5.31 µM,2.22 µM,4.55 µM,1.05 µM,2.61 µM,1.02 µM,2.34 µM,1.45 µM,3.12 µM,1.78 µM,4.81 µM,1.44 µM,3.56 µM,1.59,7.7,1.62,4.28
Cc1cc(O)ccc1C1=NN(c2ccc(S(N)(=O)=O)cc2)C(=O)CC1,3.5 µM and 7.27 µM,50 µM and > 100 µM,2.26 µM and 8.23 µM,50 µM and > 100 µM,1.85 µM and 5 µM,50 µM and > 100 µM,2.21 µM and 4.82 µM,34.7 µM and 24.3 µM,10.8 µM and 29.7 µM,50 µM and > 100 µM,2.55 µM and 4.48 µM,50 µM and 81.4 µM,2.34 µM and 8.64 µM,50 µM and > 100 µM,10.9 µM and 21.8 µM,50 µM and > 100 µM,> 100,> 100,1.49,43.6
CC(=Nc1ccc(N(C)C)cc1)c1ccccc1,,30.6 µM,,46.9 µM,,43.9 µM,,> 100 µM,,,,29.9 µM,,39.7 µM,,35.4 µM,,40.8,,33.2
CCCCC(=O)N(c1ccc(Nc2c3ccccc3nc3cc([N+](=O)[O-])ccc23)cc1)S(C)(=O)=O,3.78 µM,19.8 µM,0.293 µM,9.83 µM,12.9 µM,> 69.7 µM,4.83 µM,> 100 µM,3.05 µM,17.4 µM,11 µM,33.6 µM,5.73 µM,31 µM,12.8 µM,49.5 µM,11.1,29.2,18.4,80.6
COC(=O)[C@H](Cc1cn(C)cn1)NC(=O)[C@H](CC(=O)OCc1ccccc1)NC(=O)Nc1cc(C(F)(F)F)cc(C(F)(F)F)c1,12.5 µM,40.7 µM,3.74 µM,> 100 µM,12.3 µM,27.1 µM,10.9 µM,24 µM,2.96 µM,8.9 µM,3.38 µM,11.3 µM,6.66 µM,21.1 µM,10.9 µM,23.3 µM,11.6,27.1,12,25.8
CCOc1cc(-c2nncn2C)ccc1Nc1ncc2cc(C)nc(NCC(C)(C)C)c2n1,0.0849 µM,> 100 µM,,> 100 µM,> 100 µM,> 100 µM,> 100 µM,> 100 µM,1.1 µM,> 100 µM,> 100 µM,> 100 µM,0.439 µM,> 100 µM,,> 100 µM,> 29.3,> 100,> 80.5,> 100
C/C=C(\N=C=S)C(=O)OC1C(COC(C)=O)OC([C@]2(O)CC(=O)C(=N)C(C(=O)O)=C2O)C(O)C1OC1CC(OC)C(O)([C@@H](C)OC(=O)[C@@H](C)CC)C(C)O1 (stereo partly specified),,21.9 µM,,38.4 µM,,5.34 µM,,37.2 µM,,17.2 µM,,30.9 µM,,8.33 µM,,51.7 µM,,19.4,,16.5
C=CCn1c2ccccc2c2c3c(c4c5ccccc5n(CC=C)c4c21)C(=O)N(O)C3=O,2.29 µM,12.5 µM,0.674 µM,29.9 µM,2.09 µM,4.31 µM,2.62 µM,8.62 µM,0.967 µM,2.43 µM,2.31 µM,26.2 µM,4.42 µM,29.5 µM,4.12 µM,21.4 µM,5.38,44.8,3.27,27.9
NS(=O)(=O)c1ccc(N=Nc2ccc[nH]c2=O)cc1,,> 100 µM,,> 100 µM,,> 100 µM,,> 100 µM,,> 100 µM,,> 100 µM,,> 100 µM,,> 100 µM,,> 100,,> 100
C=C1c2nc3ccccc3n2C=C(c2cccc(Cl)c2)N1Cc1ccc(OC)cc1,0.496 µM,11.7 µM,0.331 µM,> 39.4 µM,0.193 µM,0.639 µM,1.42 µM,6.91 µM,0.878 µM,21.5 µM,0.589 µM,> 44.2 µM,0.441 µM,> 78.2 µM,0.964 µM,> 100 µM,1.83,> 100,1.7,> 100
COc1cccc2c1C(=O)c1c(O)c3c(c(O)c1C2=O)C[C@@](O)(C(=O)CO)CC3OC1CC(N)C(OC2CCCCO2)C(C)O1 (stereo partly specified),,1.16 µM and 3.31 µM,,1.08 µM,< 0.001 µM,,0.00963 µM,1.13 µM and 2.44 µM,0.0184 µM,1 µM and 1.62 µM,0.0529 µM,,0.113 µM,1.03 µM and 7.04 µM,,0.273 µM,1.46,,,0.481
CN1CCC2(CC1)N=C(SCC(=O)Nc1cnc3ccccc3c1)C(c1ccc(Br)cc1)=N2,1.77 µM,3.16 µM,1.8 µM,3.55 µM,1.61 µM,3.75 µM,1.79 µM,3.93 µM,1.66 µM,3.11 µM,1.71 µM,3.16 µM,1.88 µM,3.65 µM,1.55 µM,3.23 µM,3.52,15.8,12,24.4
N#C/C(=C\c1cc(O)c(O)c(O)c1)C(N)=O,,> 100 µM,,> 56 µM,,> 81.5 µM,,> 100 µM,,> 65.6 µM,,> 100 µM,,> 100 µM,,> 100 µM,,> 100,,> 100
CC1=CC(=O)N(c2cccc3c(N4C(=O)C=C(C)C4=O)cccc23)C1=O,1.79 µM,4.16 µM,3.95 µM,23.5 µM,2.38 µM,8.8 µM,> 46.7 µM,> 71.5 µM,1.8 µM,5.56 µM,3.9 µM,19.5 µM,0.99 µM,2.93 µM,8.44 µM,22.5 µM,5.18,16.9,6.44,19.5
COc1ccc2c(c1)C(=Nc1ccc(F)c(Cl)c1)c1c-2c(Nc2ccc(F)c(Cl)c2)nc2ccccc12,27.8 µM,> 100 µM,56.2 µM,> 100 µM,14.8 µM,33.1 µM,33 µM,> 100 µM,51.8 µM,> 100 µM,47.1 µM,> 100 µM,> 100 µM,> 100 µM,23 µM,> 61.3 µM,24.8,> 75.7,23.4,> 74.4
c1ccc(-c2[nH]ncc2-c2ccnc(-c3ccc(OCCN4CCOCC4)cc3)c2)nc1,> 25 µM,> 25 µM,> 25 µM,> 25 µM,> 25 µM,> 25 µM,> 25 µM,> 25 µM,> 25 µM,> 25 µM,> 25 µM,> 25 µM,> 25 µM,> 25 µM,> 25 µM,> 25 µM,> 25,> 25,> 25,> 25
O=C1/C(=C\c2ccc(F)cc2)CN(C(=O)c2ccccc2F)C/C1=C\c1ccc(F)cc1,0.228 µM,0.571 µM,0.436 µM,1.68 µM,1.11 µM,4.57 µM,2.08 µM,5.02 µM,0.28 µM,0.957 µM,1.51 µM,3.44 µM,0.428 µM,1.73 µM,1.83 µM,3.95 µM,2.33,6.53,1.85,3.41
O=C(Nc1ccncc1)C(=O)c1cn(S(=O)(=O)c2cccc(Cl)c2)c2ccccc12,3.1 µM,86.8 µM,3.63 µM,> 100 µM,3.94 µM,> 100 µM,2.92 µM,37.1 µM,4.72 µM,> 100 µM,4.09 µM,32.6 µM,4.74 µM,> 100 µM,10.6 µM,43.9 µM,7.51,> 100,5.85,38.3
O=C1C=C(NCCO)c2nccc3c2c1nc1ccccc13,11.5 µM,38.7 µM,20.5 µM,> 100 µM,14.2 µM,> 100 µM,18.5 µM,> 100 µM,15.8 µM,95 µM,17.3 µM,58.7 µM,15.5 µM,> 100 µM,24.5 µM,> 100 µM,41.3,> 100,36,> 100
COc1cc(-c2nn(-c3ccc(NC(=O)Nc4cc(C(F)(F)F)cc(C(F)(F)F)c4)cc3)cc2-c2ccncc2)ccc1Cl,1.65 µM,3.39 µM,2.84 µM,8.98 µM,3.04 µM,> 100 µM,1.1 µM,2.63 µM,,,1.99 µM,4.23 µM,1.87 µM,3.84 µM,1.64 µM,3.34 µM,2.78,9.43,2.61,6.03
COc1cc(C(=O)/C=C/c2cc(-c3ccc4c(c3)OCO4)n[nH]2)cc(OC)c1OC,1.9 µM,4.63 µM,1.06 µM,2.88 µM,2.17 µM,6.49 µM,2.58 µM,10.1 µM,,,2.91 µM,9.2 µM,1.62 µM,3.8 µM,2.08 µM,6.23 µM,0.885,4.24,2.02,5
